Here are results for two molecules from patent US10125358B2, “Methods and compounds for increasing threonyl-tRNA synthetase activity” (UNIVERSITY OF VERMONT AND STATE AGRICULTURAL COLLEGE, priority 2012, dated 2018).

The test system of data set [1] is HUVECs. Briefly: Western blot for unfolded protein response (phospho-eIF2α) and apoptosis (cleaved caspase-3). It is filed as cell-based, human. The settings on record: HUVECs in full serum media. On the procedure:
After treatments, cells were harvested into sample buffer containing: 0.2 M Tris-HCL, 4% SDS, 4% β-mercaptoethanol, 40% glycerol, 4 μM pyronin Y. Extracts were sheared through a 24-gauge syringe. Samples were separated by 10% SDS-PAGE and transferred to nitrocellulose membrane and probed with specific antibody as described (Lounsbury, Beddow et al. 1994). Primary antibodies are as follows: Rabbit monoclonal anti-P-eIF2α (1:1000; Cell Signaling Technology, Danvers, Mass.), rabbit monoclonal anti-Cleaved Caspase-3 (1:1000; Cell Signaling Technology, Danvers, Mass.), rabbit polyclonal anti-TARS (1:500; Santa Cruz Biotechnology, Santa Cruz, Calif.). Loading control antibodies were rabbit monoclonal anti-β-actin and anti-β-tubulin (1:1000; Cell Signaling Technology, Danvers, Mass.). Secondary antibodies were HRP-goat-anti-mouse and HRP-goat-anti-rabbit (1:5,000; Jackson Laboratories, Bar Harbor, Me.).
For orientation: Immunoblotting shows a protein as a band on a membrane.

Data set [2] has as its system HUVECs. Briefly: Cell viability by Trypan Blue exclusion. Type of data set: cell-based, human. The note with it: concentrations below 100 nM. How it is done: Cell viability was measured by counting cells in a hemacytometer with Trypan Blue exclusion (Sigma-Aldrich, St. Louis, Mo.) according to manufacturer's instructions. Measurements were normalized to untreated cells.

Another data set has as its system HUVEC. Nature of the data set: Nascent protein synthesis assay (Click-iT metabolic labeling). Type of data set: cell-based, human. The settings on record: HUVECs; concentrations below 100 nM. On the procedure:
Nascent Protein Synthesis Assay—
Nascent protein synthesis was measured using Invitrogen Click-iT® metabolic labeling reagents [Dieterich, D. C., et al., Nat Protoc 2, 532-40 (2007)]. HUVEC cultures were pre-incubated in methionine-free Dulbecco's Modified Eagle Medium (D-MEM) high glucose (Invitrogen, Life Technologies, Grand Island, N.Y.) supplemented with 10% dialyzed fetal bovine serum (Invitrogen) containing the control or test compounds. Cycloheximide (50 μM) was used as a positive control. After 45 minutes, 25 μM Click-iT® AHA (L-azidohomoalanine) (Invitrogen) was added and cultures were incubated for 3 h. Cells were lysed with 1% SDS in 50 mM Tris-HCl with protease and phosphatase inhibitors: 1 mM […], 20 […], and 4 […]. Extracts were sonicated and protein concentration was determined by Bradford assay. Protein samples were labeled with biotin alkyne (PEG4 carboxamide-propargyl biotin) (Invitrogen) using the Click-iT® Protein Reaction Buffer Kit (Invitrogen) according to manufacturer's instructions. Equal concentrations of protein were run on a 10% SDS-PAGE and transferred to nitrocellulose membrane, incubated with streptavidin-HRP reagent (Pierce Thermo Scientific, Rockford, Ill.) followed by reaction with ECL reagent (Pierce) and exposed on film.

The next data set has as its system SKOV-3 cells. Briefly: HIF-1α stabilization in hypoxia (Western blot). Type of data set: cell-based. How it is done: After treatments, cells were harvested into sample buffer containing: 0.2 M Tris-HCL, 4% SDS, 4% β-mercaptoethanol, 40% glycerol, 4 μM pyronin Y. Extracts were sheared through a 24-gauge syringe. Samples were separated by 10% SDS-PAGE and transferred to nitrocellulose membrane and probed with rabbit polyclonal anti-TARS (1:500; Santa Cruz Biotechnology, Dallas, Tex.) or monoclonal anti-HIF-1α (BD Transduction Laboratories, [BD Biosciences, San Jose, Calif.]) (Lounsbury, Beddow et al. 1994). Secondary antibodies were HRP-goat-anti-mouse and HRP-goat-anti-rabbit (1:5,000; Jackson Laboratories, Bar Harbor, Me.).

In a further data set the target is T1, TARS (Homo sapiens, UniProt P26639).
T1 sequence (P26639 1-723): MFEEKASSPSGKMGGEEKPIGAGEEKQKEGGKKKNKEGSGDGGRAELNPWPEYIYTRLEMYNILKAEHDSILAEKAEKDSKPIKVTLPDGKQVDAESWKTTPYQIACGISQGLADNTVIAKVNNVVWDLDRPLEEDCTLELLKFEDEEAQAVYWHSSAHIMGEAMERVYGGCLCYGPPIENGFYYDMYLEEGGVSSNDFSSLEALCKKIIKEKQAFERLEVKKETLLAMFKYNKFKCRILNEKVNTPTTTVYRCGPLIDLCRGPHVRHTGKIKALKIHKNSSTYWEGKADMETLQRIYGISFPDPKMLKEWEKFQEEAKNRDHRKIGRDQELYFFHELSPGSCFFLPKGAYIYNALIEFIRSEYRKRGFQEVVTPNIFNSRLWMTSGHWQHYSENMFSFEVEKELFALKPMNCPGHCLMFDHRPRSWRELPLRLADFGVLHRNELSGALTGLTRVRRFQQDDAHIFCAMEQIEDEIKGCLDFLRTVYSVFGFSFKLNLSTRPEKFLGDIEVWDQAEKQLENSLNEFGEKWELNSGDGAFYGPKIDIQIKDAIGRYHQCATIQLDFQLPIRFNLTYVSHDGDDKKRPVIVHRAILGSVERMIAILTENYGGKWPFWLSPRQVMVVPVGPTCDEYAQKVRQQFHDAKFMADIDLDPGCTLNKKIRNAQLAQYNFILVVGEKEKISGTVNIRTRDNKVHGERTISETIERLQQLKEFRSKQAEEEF
The settings on record: calculated; see Williams, Mirando et al. 2013; cited from earlier work.

In the next data set the test system is tRNAThr. Briefly: Steady state aminoacylation assay. Type of data set: biochemical, E. coli or human. The settings on record: purified recombinant protein. How it is done:
Steady State Aminoacylation Assay—
The aminoacylation activities of the TARS constructs were determined using modifications to established procedures (Francklyn et al 2008). Briefly, reaction mixtures consisted of 20 mM Tris-HCl pH 8.0, 100 mM KCl, 10 mM MgCl2, 1 mM dithiothreitol, 2 mM ATP, 2.5 U pyrophosphatase (Roche), 80 μM threonine, 20 μM [14C]-threonine, and 5 μM of E. coli or human tRNAThr. Reactions were initiated with the addition of 0.25-0.75 μM TARS and run at 37° C. Aliquots were taken at varying time points and spotted onto Whatmann 3MM paper filters pre-soaked in 5% trichloroacetic acid (TCA). Upon completion, the filters were washed 3 times in excess TCA, once in 95% ethanol, and dried under a heating lamp. The formation of Thr-tRNAThr was detected by scintillation counter and the activity determined by linear regression of threonyl-tRNAThr formed per active site per unit time.

Data set [3] concerns von Hippel Lindau protein (VHL). Nature of the data set: Co-immunoprecipitation of TARS and VHL from transfected HEK293 cells. The settings on record: biotinylated TARS construct precipitated with streptavidin beads, HEK cells. It is filed as binding, human. How it is done:
Plasmids expressing biotinylatable TARS (pTARS) and myc-tagged VHL (pVHL) were transfected into HEK293 cells, and then extracts were prepared. Biotin-TARS was precipitated using streptavidin-coupled beads. Myc-VHL was precipitated using anti-myc antibodies. Precipitates were separated by SDS-PAGE, transferred and blots probed with anti-TARS antibody or anti-myc (VHL) antibody.

Broadly, the Ki is the equilibrium dissociation constant of an inhibitor or competing ligand from its target.

Entries after “also recorded” stand apart in the source; their conditions may differ.

Sequence of von Hippel Lindau protein (VHL) (P40337 54-213 limits assumed): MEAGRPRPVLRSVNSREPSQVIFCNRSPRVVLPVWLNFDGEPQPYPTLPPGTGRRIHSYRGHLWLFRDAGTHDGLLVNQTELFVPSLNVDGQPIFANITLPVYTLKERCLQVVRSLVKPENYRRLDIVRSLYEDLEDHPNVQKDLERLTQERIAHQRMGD

In the case of `C[C@@H]1C[C@H](C)C[C@H](C)[C@@H](O)CC(=O)O[C@H]([C@@H]2CC[C@H]2C(=O)O)C/C=C/C=C(/C#N)[C@H](O)[C@@H](C)C1` [BC194], the “stimulation of unfolded protein response (phospho-eIF2α) and apoptosis (cleaved caspase-3)” value in the data set with HUVECs [1] is listed as “high concentrations of BC194 are required”. Further, the cell viability result in the data set with HUVECs [2] is reported as “unaffected; also recorded: lack of effect”. For the same molecule, the nascent protein synthesis result with HUVEC is “unaffected; also recorded: lack of effect”. For the same molecule, the HIF-1α transcription entry in the data set with SKOV-3 cells (SK-OV3 cells responding to hypoxia) was “no change in HIF-1α transcription”. Also, the HIF-1α protein stabilization entry in the data set with SKOV-3 cells (hypoxia (2% O2), 6 h) is recorded as “diminished the levels of HIF-1α protein stabilization; also recorded: reduce HIF-1α stabilization”. The Ki at TARS is 4.1 nM.

B1: TARS: N-terminal His6-tagged human threonyl-tRNA synthetase expressed and purified from E. coli; SEQ ID NO:2 (protein, listed as Homo sapiens)
chain: T1 sequence (P26639 1-723)
modifications: N-terminal His6 tag
On to B1, for which the aminoacylation activity result in the data set on tRNAThr was “exhibits aminoacyl synthetase activity”. For the same molecule, in data set [3], the “co-precipitation of VHL” value is recorded as “the VHL protein is co-precipitated”.
